From ChEMBL document CHEMBL1158657, “Improved antitumor activity by modification of nogalamycin” (1979) come the findings set out here.

SMILES strings stand for the structures. In brackets after ≈: the same amount, converted by molar mass. Activity calls are given as the source filed them. The calls are words filed in the database; no cut-off is given here. A value given as a limit tells only on which side of the number the result lay.

What all share (assay type): functional
Test [1] concerns L1210. The experiment in a line: Inhibition of DNA synthesis in mouse L1210 cells. To be noted: read-out: ID50 (the source's name).
For test [2], the system named is B16. The experiment in a line: Antitumor activity against mouse B16 cells xenografted in mouse assessed as increase in life span at 16 mg/kg/day, ip after 9 days. The note with it: route intraperitoneal.
In test [3] the test system is L1210. Nature of the test: Cytotoxicity against mouse L1210 cells. The note with it: Mus musculus, L1210, read-out: ID50.
In test [4] the test system is L1210. The experiment in a line: Inhibition of RNA synthesis in mouse L1210 cells. To be noted: read-out: ID50 (the source's name).
Test [5] relates to P388. The experiment in a line: Antitumor activity against mouse P388 cells xenografted in mouse assessed as increase in life span at 12.5 mg/kg/day, ip after 9 days. The note with it: route intraperitoneal.
Test [6] relates to L1210. The experiment in a line: Inhibition of RNA synthesis in mouse L1210 cells at 10 nmole/ml.
Test [7] deals with L1210. The experiment in a line: Antitumor activity against mouse L1210 cells xenografted in mouse assessed as increase in life span at 3.13 mg/kg/day, ip after 9 days. To be noted: route intraperitoneal.
For test [8], the system named is B16. The experiment in a line: Antitumor activity against mouse B16 cells xenografted in mouse assessed as increase in life span at 20 mg/kg/day, ip after 9 days. To be noted: route intraperitoneal.
In test [9] the test system is B16. Nature of the test: Antitumor activity against mouse B16 cells xenografted in mouse assessed as increase in life span at 12.5 mg/kg/day, ip after 9 days. To be noted: route intraperitoneal.
A short description of test [10]: Antitumor activity against mouse CD8F1 cells xenografted in mouse assessed as increase in life span at 25 mg/kg, sc Q7D after 5 days. The note with it: route subcutaneous.
The test system of test [11] is P388. The experiment in a line: Antitumor activity against mouse P388 cells xenografted in mouse assessed as increase in life span at 3.13 mg/kg/day, iv after 9 days.
For a further test, the system named is MC-38. The experiment in a line: Antitumor activity against mouse Colon 38 cells xenografted in mouse assessed as increase in life span at 25 mg/kg, sc Q7D after 2 days. To be noted: route subcutaneous.
Test [12] concerns P388. The experiment in a line: Antitumor activity against mouse P388 cells xenografted in mouse assessed as increase in life span at 6.25 mg/kg/day, iv after 9 days.
The test system of test [13] is B16. Nature of the test: Antitumor activity against mouse B16 cells xenografted in mouse assessed as increase in life span at 6 to 12 mg/kg/day, ip after 9 days. The note with it: route intraperitoneal.
For test [14], the system named is B16. Nature of the test: Antitumor activity against mouse B16 cells xenografted in mouse assessed as increase in life span at 10 mg/kg/day, ip after 9 days. To be noted: route intraperitoneal.
For another test, the system named is Colon 26. Nature of the test: Antitumor activity against mouse Colon 26 cells xenografted in mouse assessed as increase in life span at 25 mg/kg, ip Q4D after 2 days. The note with it: route intraperitoneal.
Test [15] has as its system B16. The experiment in a line: Antitumor activity against mouse B16 cells xenografted in mouse assessed as increase in life span at 5 mg/kg/day, ip after 9 days. The note with it: route intraperitoneal.
The subject of test [16] is Lewis lung carcinoma cell line. The experiment in a line: Antitumor activity against mouse LLC cells xenografted in mouse assessed as increase in life span at 12.5 mg/kg/day, ip after 9 days. To be noted: route intraperitoneal.
Test [17] concerns B16. The experiment in a line: Antitumor activity against mouse B16 cells xenografted in mouse assessed as increase in life span at 2.5 mg/kg/day, ip after 9 days. To be noted: route intraperitoneal.
Test [18] concerns L1210. Nature of the test: Antitumor activity against mouse L1210 cells xenografted in mouse assessed as increase in life span at 6.25 mg/kg/day, ip after 9 days. To be noted: route intraperitoneal.
In test [19] the test system is P388. The experiment in a line: Antitumor activity against mouse P388 cells xenografted in mouse assessed as increase in life span at 12.5 mg/kg/day, po after 9 days.
In test [20] the test system is L1210. The experiment in a line: Antitumor activity against mouse L1210 cells xenografted in mouse assessed as increase in life span at 12.5 mg/kg/day, ip after 9 days. The note with it: route intraperitoneal.
For test [21], the system named is P388. The experiment in a line: Antitumor activity against mouse P388 cells xenografted in mouse assessed as increase in life span at 12.5 mg/kg/day, iv after 9 days.
The test system of test [22] is P388. Nature of the test: Antitumor activity against mouse P388 cells xenografted in mouse assessed as increase in life span at 3.13 mg/kg/day, ip after 9 days. The note with it: route intraperitoneal.
In test [23] the test system is P388. Nature of the test: Antitumor activity against mouse P388 cells xenografted in mouse assessed as increase in life span at 6.25 mg/kg/day, ip after 9 days. To be noted: route intraperitoneal.
Test [24] has as its system B16. Nature of the test: Antitumor activity against mouse B16 cells xenografted in mouse assessed as increase in life span at 1 mg/kg/day, ip after 9 days. The note with it: route intraperitoneal.
For test [25], the system named is B16. Nature of the test: Antitumor activity against mouse B16 cells xenografted in mouse assessed as increase in life span at 0.5 mg/kg/day, ip after 9 days. To be noted: route intraperitoneal.
In test [26] the test system is P388. The experiment in a line: Antitumor activity against mouse P388 cells xenografted in mouse assessed as increase in life span at 0.25 mg/kg/day, iv after 9 days.
The test system of test [27] is L1210. The experiment in a line: Antitumor activity against mouse L1210 cells xenografted in mouse assessed as increase in life span at 2 mg/kg/day, ip after 9 days. The note with it: route intraperitoneal.
Test [28] has as its system P388. Nature of the test: Antitumor activity against mouse P388 cells xenografted in mouse assessed as increase in life span at 0.5 mg/kg/day, iv after 9 days.
The subject of test [29] is P388. The experiment in a line: Antitumor activity against mouse P388 cells xenografted in mouse assessed as increase in life span at 2 mg/kg/day, ip after 9 days. The note with it: route intraperitoneal.
In test [30] the test system is L1210. Nature of the test: Antitumor activity against mouse L1210 cells xenografted in mouse assessed as increase in life span at 0.5 mg/kg/day, ip after 9 days. The note with it: route intraperitoneal.
The subject of test [31] is L1210. The experiment in a line: Antitumor activity against mouse L1210 cells xenografted in mouse assessed as increase in life span at 0.25 mg/kg/day, ip after 9 days. To be noted: route intraperitoneal.
The test system of test [32] is L1210. Nature of the test: Antitumor activity against mouse L1210 cells xenografted in mouse assessed as increase in life span at 1 mg/kg/day, ip after 9 days. To be noted: route intraperitoneal.
For test [33], the system named is P388. The experiment in a line: Antitumor activity against mouse P388 cells xenografted in mouse assessed as increase in life span at 2 mg/kg/day, iv after 9 days.
Test [34] concerns P388. Nature of the test: Antitumor activity against mouse P388 cells xenografted in mouse assessed as increase in life span at 0.5 mg/kg/day, ip after 9 days. The note with it: route intraperitoneal.
The subject of test [35] is B16. The experiment in a line: Antitumor activity against mouse B16 cells xenografted in mouse assessed as increase in life span at 0.25 mg/kg/day, ip after 9 days. To be noted: route intraperitoneal.
Test [36] deals with P388. Nature of the test: Antitumor activity against mouse P388 cells xenografted in mouse assessed as increase in life span at 0.25 mg/kg/day, ip after 9 days. The note with it: route intraperitoneal.
In test [37] the test system is P388. The experiment in a line: Antitumor activity against mouse P388 cells xenografted in mouse assessed as increase in life span at 1 mg/kg/day, iv after 9 days.
Test [38] relates to B16. The experiment in a line: Antitumor activity against mouse B16 cells xenografted in mouse assessed as increase in life span at 2 mg/kg/day, ip after 9 days. The note with it: route intraperitoneal.
In test [39] the test system is P388. Nature of the test: Antitumor activity against mouse P388 cells xenografted in mouse assessed as increase in life span at 1 mg/kg/day, ip after 9 days. To be noted: route intraperitoneal.

For `CO[C@H]1C[C@](C)(O)Cc2cc3c(c(O)c21)C(=O)c1c(O)cc2c(c1C3=O)O[C@@H]1O[C@@]2(C)[C@H](O)[C@@H](N(C)C)[C@@H]1O`, the IC50 is 11.6 µM in the test with L1210 [1], 0.41 µg/mL (≈ 0.757 µM) in the test on L1210 [3] and 8.3 µM in the test with L1210 [4]. The Activity was determined as 105% with B16 [2] and 76% in the test with P388 [5]. Besides, the “inhibition (INH)” value in the test on L1210 [6] stood at 91.2%.
Turning to `CO[C@H]1C[C@@](C)(O)Cc2cc3c(c(O)c21)C(=O)c1c(O)cc2c(c1C3=O)O[C@@H]1O[C@@]2(C)[C@H](O)[C@@H](N(C)C)[C@@H]1O`, the Activity in the test on L1210 [7] is on record as 42%; in the test on B16 [8], -9%; with B16 [9], 109%; in test [10] it was 1%; in the test with P388 [11], 25%; with MC-38, 21%. Moreover, the Activity was determined as 53% in the test on P388 [12]; 77% with B16 [13]; 114% in the test with B16 [14]; 106% in the test on Colon 26; 88% in the test with B16 [15]; 38% in test [16]. In addition, the Activity is given as 64% in the test on B16 [17]; 55% in the test with L1210 [18]; 48% with P388 [19]; 140% in the test on L1210 [20]; 187% with P388 [21]; 61% with P388 [22]. The Activity in the test with P388 [23] worked out at 111%; with P388 [5], 197%. Besides, the IC50 was over 46 µM in the test with L1210 [1], 0.061 µg/mL (≈ 0.113 µM) with L1210 [3] and over 46 µM with L1210 [4]. In the test with L1210 [6], the “inhibition (INH)” value is 0%.
For the molecule `COc1cccc2c1C(=O)c1c(O)c3c(c(O)c1C2=O)C[C@@](O)(C(=O)CO)C[C@@H]3O[C@H]1C[C@H](N)[C@H](O)[C@H](C)O1` [DOXORUBICIN], the Activity with B16 [24] turned out to be 166%; in the test with B16 [25], 160%; in the test on P388 [26], 8%; in the test on L1210 [27], 40%; in the test with P388 [28], 3%; with P388 [29] it was 7%. The Activity is given as 29% with L1210 [30]; 20% in the test on L1210 [31]; 38% in the test on L1210 [32]; 29% in the test with P388 [33]; 137% in the test on P388 [34]; 127% with B16 [35]. The Activity in the test with P388 [36] was determined as 61%; in the test with P388 [37], 10%; in the test with B16 [38] it was 158%; with P388 [39], 158%. Besides, the outcome in the test with P388 [19] was inactive.
